The text below walks through data of patent US6635641B2 (Agouron Pharmaceuticals, Inc., priority 2000, dated 2003).

Each structure is given as a SMILES string.

For data set [1], the target named is T1, FGF-R1 intracellular kinase domain (Homo sapiens, UniProt P11362, C488A/C584S/L457V).
T1 construct: starting from the endogenous methionine residue 456 to glutamate 766; made in house; host or cells: baculovirus expression system
Put plainly: FGF-R spectrophotometric assay.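 On all read-outs here: coupled PK/LDH enzyme assay: ADP from kinase phosphoryl transfer drives NADH oxidation, read as absorbance decrease at 340 nm, with 2 mM ATP and poly(E4Y1) substrate.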 It is filed as biochemical. Particulars: for Ki: read-out: FGF-P Ki.
Source text: The intracellular kinase domain of human FGF-R1 was expressed using the baculovirus vector expression system starting from the endogenous methionine residue 456 to glutamate 766, according to the residue numbering system of Mohammadi et al., Mol. Cell.
The production of ADP from ATP that accompanies phosphoryl transfer was coupled to oxidation of NADH using phosphoenolpyruvate (PEP) and a system having pyruvate kinase (PK) and lactic dehydrogenase (LDH). The oxidation of NADH was monitored by following the decrease of absorbance at 340 nm (e340=6.22 cm^−1 mM^−1) using a Beckman DU 650 spectrophotometer. […] Assays were initiated with 5 to 40 nM of enzyme. Ki values were determined by measuring enzyme activity in the presence of varying concentrations of test compounds. The data were analyzed using Enzyme Kinetic and Kaleidagraph software.
The spectrophotometric assay was carried out as described above for VEGF-R2, except for the following changes in concentration: FGF-R=50 nM, ATP=2 mM, and poly(E4Y1)=15 mM.

The target of data set [2] is T2, LCK tyrosine kinase (Homo sapiens, UniProt P06239, C224D/P223M).
T2 construct: starting from amino acid residue 223 to the end of the protein at residue 509; made in house; host or cells: insect cells
Put plainly: LCK spectrophotometric assay.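 On all read-outs here: recombinant LCK kinase activity on poly(E4Y1), ADP formation coupled through PK/LDH to NADH oxidation, followed as absorbance loss at 340 nm.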 The format is biochemical. Particulars: for Ki: read-out: LCK-P Ki.

The target of data set [3] is T3, phosphorylated VEGF-R2Δ50 (FLVK-P) (Homo sapiens, UniProt P35968, DEL940-989/E990V).
T3 construct: VEGF-R2Δ50 contains residues 806-939 and 990-1171; made in house; host or cells: baculovirus/insect cells
Put plainly: VEGF-R2 coupled spectrophotometric assay, phosphorylated construct (FLVK-P). The format is biochemical. The method, boiled down: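 Continuous PK/LDH-coupled spectrophotometric read (NADH loss at 340 nm) with 5–40 nM enzyme in 200 mM Hepes pH 7.5. Phosphorylated construct run at 1 mM ATP, 25 mM MgCl2, 5.1 mM poly(E4Y1); unphosphorylated at 3 mM ATP, 60 mM MgCl2 plus 2 mM MnCl2, 20 mM poly(E4Y1). Ki values derived from varied inhibitor concentrations.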

Data set [4] has as its target T4, FL-CHK-1 (Homo sapiens, UniProt O14757).
T4 construct: C-terminally His-tagged full-length human CHK-1 (FL-CHK-1); made in house; host or cells: baculovirus/insect cells
T4 sequence (O14757 1-476): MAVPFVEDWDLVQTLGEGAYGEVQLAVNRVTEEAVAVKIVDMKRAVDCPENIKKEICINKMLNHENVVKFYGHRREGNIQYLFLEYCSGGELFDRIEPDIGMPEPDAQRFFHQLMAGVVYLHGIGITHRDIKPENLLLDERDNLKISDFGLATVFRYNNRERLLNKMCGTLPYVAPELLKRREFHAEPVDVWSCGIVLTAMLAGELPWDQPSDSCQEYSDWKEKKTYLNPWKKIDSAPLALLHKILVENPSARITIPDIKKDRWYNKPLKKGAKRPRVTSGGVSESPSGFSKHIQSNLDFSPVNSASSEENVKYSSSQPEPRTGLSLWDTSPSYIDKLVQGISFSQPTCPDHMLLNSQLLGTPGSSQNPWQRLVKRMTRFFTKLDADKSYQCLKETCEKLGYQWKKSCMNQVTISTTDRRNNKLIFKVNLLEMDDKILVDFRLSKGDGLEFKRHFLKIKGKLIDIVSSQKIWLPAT
In words: CHK-1 coupled spectrophotometric assay (Syntide-2). Particulars: @ 1 μM; read-out: CHK-1 percent inhibition. The format is biochemical. The source says: C-terminally His-tagged full-length human CHK-1 (FL-CHK-1) was expressed using the baculovirus/insect cell system. It contains 6 histidine residues (6×His-tag) at the C-terminus of the 476 amino acid human CHK-1. The protein was purified by conventional chromatographic techniques.
The production of ADP from ATP that accompanies phosphoryl transfer to the synthetic substrate peptide Syntide-2 ([…]) was coupled to oxidation of NADH using phosphoenolpyruvate (PEP) through the actions of pyruvate kinase (PK) and lactic dehydrogenase (LDH). The oxidation of NADH was monitored by following the decrease of absorbance at 340 nm (ε340=6.22 cm−1 mM^−1) using a HP8452 spectrophotometer. Typical reaction solutions contained: […]; 0.15 mM NADH; 28 units of LDH/ml; 16 units of PK/ml; 3 mM DTT; 0.125 mM Syntide-2; 0.15 mM ATP; 25 mM MgCl2 in 50 mM TRIS, pH 7.5; and 400 mM NaCl. Assays were initiated with 10 nM of FL-CHK-1. Ki values were determined by measuring initial enzyme activity in the presence of varying concentrations of test compounds. The data were analyzed using Enzyme Kinetic and Kaleidagraph software.

T3 sequence (P35968 with tags, fused parts or gaps DEL940-989/E990V limits assumed): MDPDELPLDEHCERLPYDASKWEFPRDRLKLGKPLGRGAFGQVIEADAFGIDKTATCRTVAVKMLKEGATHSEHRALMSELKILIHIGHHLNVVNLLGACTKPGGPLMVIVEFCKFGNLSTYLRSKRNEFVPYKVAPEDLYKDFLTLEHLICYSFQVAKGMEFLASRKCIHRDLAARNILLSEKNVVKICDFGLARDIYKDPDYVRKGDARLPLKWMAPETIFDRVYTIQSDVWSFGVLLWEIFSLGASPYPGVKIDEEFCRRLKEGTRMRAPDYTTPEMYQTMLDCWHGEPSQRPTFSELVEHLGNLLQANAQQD
T1 sequence (P11362 456-766 L457V/C488A/C584S): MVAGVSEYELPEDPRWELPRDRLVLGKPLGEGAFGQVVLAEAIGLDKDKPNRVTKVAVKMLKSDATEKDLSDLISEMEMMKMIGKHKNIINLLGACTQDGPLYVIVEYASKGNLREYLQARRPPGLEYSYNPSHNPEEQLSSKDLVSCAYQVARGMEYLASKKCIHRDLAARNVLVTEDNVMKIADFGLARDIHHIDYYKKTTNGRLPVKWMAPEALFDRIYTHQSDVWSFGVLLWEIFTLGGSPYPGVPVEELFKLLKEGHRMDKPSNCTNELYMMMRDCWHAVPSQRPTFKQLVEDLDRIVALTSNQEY
T2 sequence (P06239 223-509 P223M/C224D): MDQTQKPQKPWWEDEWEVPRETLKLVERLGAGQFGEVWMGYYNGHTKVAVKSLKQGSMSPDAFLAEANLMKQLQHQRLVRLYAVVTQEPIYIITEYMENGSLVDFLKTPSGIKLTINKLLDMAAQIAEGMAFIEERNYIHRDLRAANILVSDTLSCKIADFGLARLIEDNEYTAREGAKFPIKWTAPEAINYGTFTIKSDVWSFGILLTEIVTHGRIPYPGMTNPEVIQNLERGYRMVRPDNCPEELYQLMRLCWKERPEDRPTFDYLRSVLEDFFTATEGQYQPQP

Turning to `Cc1ccc2cc(NC(=O)c3cccc(SCc4cc(Nc5ccccc5)n[nH]4)c3)ccc2n1` [Example E-1, N-(2-methyl-quinolin-6-yl)-3-[{5-(phenylamino)-2-H-pyrazol-3-yl}methylsulfanyl]benzamide], the melting point is 172 to 174 °C. Besides, the inhibition at 5 µM in data set [1] (at 5 μM, read-out: FGF-P percent inhibition) was found to be 36%. Moreover, in data set [2] (@ 5 μM, read-out: LCK-P percent inhibition), the inhibition at 5 µM is 85%. In data set [3], this compound registered a Ki of 2.21 nM.

As for `O=C(Nc1ccc(N2CCCC2)c(C(F)(F)F)c1)c1cccc(CCc2cc(Nc3cccnc3)n[nH]2)c1` [Example G-11], the values for the Ki in data set [1], in data set [2] and in data set [3] were 19 nM, 2.5 nM and 0.17 nM, respectively. In addition, the inhibition at 1 µM in data set [4] turned out to be 7%.

Turning to `Cc1cc(NC(=O)c2ccc(F)c(OCc3cncc4ccccc34)c2)ccc1C(C)C` [Example K-10, N-(4-Isopropyl-3-methyl-phenyl)-4-fluoro-3-(Isoquinolin-4-yl)methoxy-benzamide], the Ki was 26 nM in data set [1], 57.7 nM in data set [2] and 2.19 nM in data set [3]. Also, the inhibition at 1 µM in data set [4] was found to be 8%.

For the compound `CC(=O)Nc1ccc(COc2cccc(C(=O)Nc3ccc4nc(C)ccc4c3)c2)cn1` [Example N-1, 3-(6-Acetylaminopyridin-3-yl)methoxy-N-(2-methyl-quinolin-6-yl)-benzamide], the inhibition at 1 µM is 12% in data set [1] (@ 1 μM, read-out: FGF-P percent inhibition) and 10% in data set [4]. For the same compound, the Ki in data set [2] turned out to be 160 nM; in data set [3], 3.74 nM.

For orientation: melting point means the temperature of the solid-liquid transition. One may read the inhibition as the percentage by which the read-out fell short of the control. In general, Ki refers to a dissociation constant, usually derived from enzyme kinetics or from competition with a known ligand.
